# Measurements as given in patent US20180010188A1, “METHOD FOR DETECTING NONSENSE-MEDIATED RNA DECAY” (The Regents of the University of California, priority 2016, published 2018).
# Test system: NMD and non-NMD isoforms of Srsf11, Ptbp2, Tra2b, Hnrnpl and Psd-95 (cellular NMD activity)
# Assay: RT-qPCR of endogenous NMD and non-NMD isoforms to monitor cellular NMD activity
# Assay type: cell-based, mouse
# Source text: In our method, we measure the individual abundance of NMD-sensitive isoforms and that of their non-NMD counterparts via quantitative real-time PCR (qPCR). The NMD isoforms are first examined for differential expression between a treatment and a control condition. An increase in a NMD isoform may be due to NMD inhibition, transcriptional activation or a change in alternative splicing favoring the NMD isoform. These three scenarios can be distinguished by examining the expression of the non-NMD counterparts. Genuine NMD regulation, transcriptional activation and alternative splicing regulation would lead to no change, upregulation and down-regulation of the NMD-insensitive isoforms, respectively (FIG. 6A).
# One technical difficulty of our method is designing RT-qPCR primers specific to the cassette exon-skipping isoform, whose entire sequence is contained in the inclusion isoform. To specifically detect an inclusion isoform, we designed a primer entirely annealing to the cassette exon (exon B in FIG. 1A). For the exclusion isoform, junction primers annealing to the exon-skipping junction appear to be the only choices. This can be either a reverse primer (FIG. 1A) with its 5′ portion matching the downstream constitutive exon (exon C) and its 3′ portion matching the upstream constitutive exon (exon A) or a forward primer (not shown) with its 5′ and 3′ portions matching the upstream and downstream exons, respectively. The challenge is herein illustrated with reverse primers but also applies to forward primers. Many exon-skipping junction primers are able to amplify the inclusion isoforms (FIGS. 7A-D). The longer the 3′ portion of the junction primer annealing to the upstream constitutive exon, the easier the primer amplifies the inclusion transcripts (FIG. 7B). Some exon-skipping junction primers with 3′ portions as short as six nucleotides, as we've observed, can still anneal to and detect the inclusion isoform at 55-60° C., albeit at a lower efficiency than its detection of the exclusion isoform. On the other hand, a longer 5′ portion and a shorter 3′ portion increase the possibility of the primer annealing to the exon B-exon C junction because of the sequence similarity around 5′ splice sites (FIGS. 7C-D). We therefore had to identify NMD-associated cassette exons containing a 3′ end unlike that of its upstream exon. We then screened multiple exon-skipping junction primers for one that amplified only the exclusion isoform and not the inclusion isoform. All primer pairs were tested and confirmed for their specificity, RT-qPCR efficiency and linear dynamic ranges (FIG. 10). Finally, two stably expressed housekeeping genes, Gapdh and Sdha, were used as internal controls for normalization by geometric averaging (Vandesompele et al., 2002. Genome Biol 3: RESEARCH0034).
# Because our method can be used on its own can to infer NMD regulation with a low false positive rate, one of its applications is unbiased screening for changes in cellular NMD activity. We screened a small panel of widely used pharmacological inhibitors for their effects on NMD. The expression of both the NMD and non-NMD isoforms of Ptbp2, Srsf11, Tra2b, Hnrnpl and Psd-95 were simultaneously measured before and after drug treatment. When the levels of all of the NMD isoforms were altered by a chemical in the same direction, the expression of the NMD and non-NMD isoforms under the treatment and control conditions was then subjected to ANOVA analysis to determine differential regulation of the two isoforms. We were interested in drugs that affected the NMD isoforms across the board and more strongly than the non-NMD counterparts. With this criterion, we identified thapsigargin as having potent activity in blocking cellular NMD.
# Neuro-2a (N2a) cells were maintained in N2a complete media consisting of L-glutamine-free Dulbecco's modified Eagle's medium (DMEM), 10% FBS and 1× GlutaMAX at 37° C. […]
# [1] = N2a cells, 5 hours post-treatment
Structure (SMILES),"concentration sufficient to revert the effect of thapsigargin on the NMD isoforms (N2a cells, thapsigargin plus GSK2606414, Psd-95, Ptbp2, Tra2b)","upregulation of the NMD isoforms in thapsigargin-treated cells (dose-dependent, 1 hour preincubation)",NMD activity in DMSO-treated cells (without thapsigargin),"NMD repression at 0.01 μM (0.01 μM, 5 hours)",isoform upregulation relative to maximal upregulation (0.02 μM),"earliest time of increase of NMD isoform transcripts (0.2 μM thapsigargin, N2a cells)","increase of non-NMD isoforms of Ptbp2 and Psd-95 (0.2 μM, at 5 hours)","non-NMD isoform levels of Srsf11, Tra2b and Hnrnpl (0.2 μM, at 5 hours)","fraction of full NMD inhibition detectable (1 hour post-treatment, full inhibition at 5 hours)",concentration at which repressive effect on NMD started to plateau (N2a cells),concentration at which Xbp1s splicing and NMD repression plateaued [1],lowest concentration at which NMD inhibition was observed [1],lowest concentration inhibiting NMD [1],NMD inhibition at concentrations above 0.2 μM (above 0.2 μM (data not shown)),NMD isoforms in siPerk-pretreated cells (thapsigargin after 48 hours siPerk)
Cn1cc(-c2ccc3c(c2)CCN3C(=O)Cc2cccc(C(F)(F)F)c2)c2c(N)ncnc21 [GSK2606414],≥ 0.1 µM,effectively reversed,did not affect,–,–,–,–,–,–,–,–,–,–,–,–
C/C=C(/C)C(=O)O[C@H]1C(C)=C2[C@H]([C@@H]1OC(=O)CCCCCCC)[C@@](C)(OC(C)=O)C[C@H](OC(=O)CCC)[C@@]1(O)[C@H]2OC(=O)[C@@]1(C)O [thapsigargin],–,–,–,little NMD repression,about 20%,1 h,around 1.8 fold,barely changed,20-30%,≥ 0.2 µM,≥ 0.1,0.02 µM,20 nM,did not further increase NMD inhibition,none of the NMD isoforms were stimulated
